From patent publication US10980764B1, “Exogenous ketone supplements for reducing anxiety-related behavior” (priority 2016, dated 2021)
Each block holds one molecule with its values, some of them ahead of it.

Tests used:
[1] = Blood βHB and glucose levels (Precision Xtra), WAG/Rij rats, Study 3
Experimental: For the sub-chronic gavage administration, the gavage dose was used that induced desired elevation of blood ketone based on the current inventors' previous studies (Kesl et al. 2016).
(§1) In the chronic feeding study, blood βHB and glucose levels were measured 24 hours before the 1st day of ketone treatments (baseline levels) and at the 13th week after the EPM experiment. In the 7-day oral gavage studies, blood βHB and glucose levels were measured 24 hours before the 1st day of ketone treatments (baseline levels; SPD and WAG/Rij rats), 24 hours after the first gavage, and 60 min after gavage on the 7th day (SPD and WAG/Rij rats). Whole blood samples (10 μL) were taken from the saphenous vein for analysis of blood glucose (mg/dl) and βHB (mmol/1) levels with the commercially available glucose and ketone (βHB) monitoring system Precision Xtra™ (Abbott Laboratories, Abbott Park, Ill., USA).
(§2) All data are presented as the mean±standard error of the mean (SEM). The effects of ketone supplementations on anxiety-related behavior were compared, as well as on blood βHB and glucose levels to control or/and baseline levels. Data analysis was performed using GraphPad PRISM version 6.0a. Results were considered significant when p<0.05. Significance was determined by one-way ANOVA with Fisher s LSD test for the behavioral data. Blood ketone, blood glucose, and body weight change were compared using a two-way ANOVA with Tukey's multiple comparisons test.

[2] = Blood βHB and glucose levels (PRECISION XTRA), WAG/Rij rats, Study 1; format: in vivo, rat; settings: for Blood βHB: WAG/Rij rats, after 7 days of gavaging ~2.5 g/kg b.w./day, compared to baseline; for Glucose, Mean Diff., Tukey's multiple comparisons test (Compare S-D to WagRij) / βHB, Mean Diff., Tukey's multiple comparisons test (Compare S-D to WagRij): WR (WAG/Rij) rats, own Baseline minus 7 days of the same group
[3] = tested on: SPD rats; assay: EPM after 7 days oral gavage, SPD rats, Study 3; format: in vivo, rat; settings: 7 days gavage 5 g/kg b.w./day
Experimental: (§3) Generally, exogenous ketone supplementation was tested by adding to food and feeding chronically for 83 days in SPD rats and administering sub-chronically for 7 days in both rat models by daily intragastric gavage bolus, followed by assessment of anxiety measures on EPM. The groups included standard diet (SD) or SD+ketone supplementation.
(§4) EPM (Coulbourn Instruments) was used to assess anxiety-related behavior of the rats after 83 days of chronic feeding or after 7 days of oral gavage. EPM experiments were carried out under non-stress conditions (in dimly lit and quiet room) between 12.00 and 14.00 hours.
(§5) The rats were transferred in their home cage to the experimental room 30 min prior to beginning the experiment. Briefly, rats were placed in the intersection of the four arms of the EPM, facing the open arm opposite to where the experimenter was and their behavior was recorded for 5 minutes. The amount of time spent and number of entries made on the open arms, closed arms and the center zones were video recorded. Latency to entry into the closed arms and the distance travelled in each zones was also measured in chronically treated SPD rats. […] At the end of the 5-minute test, the rats were removed from the maze and placed back into their home cage. The maze was cleaned with 70% alcohol and after it with tap water and dried with paper towel between rats. The primary method for data collection was a video-tracking system with computer interface and video camera (SMART V3.0 PLATFORM, Panlab, Harvard Apparatus, USA), to automatically collect behavioral data in SPD rats. A blinded observer was present in the testing room separated from the maze by a curtain, and collected EPM data in both SPD and WAG/Rij animals.
(§6) Results were considered significant when p<0.05.

[4] = Blood βHB and glucose levels (Precision Xtra), SPD rats, Study 3
From the text: A total of 48 male SPD rats were fed for 83 days with either standard rodent chow (2018 Teklad Global 18% Protein Rodent Diet (#2018), Harlan) (SD/control; n=9) or SD+ketone supplementation. […] Higher dose was used for chronic administration, as the rats were consuming food-integrated ketone supplementation throughout the day, not at a single time point.
In order to familiarize the animals to the intragastric gavage method, water was gavaged for 5 days prior to ketone supplementation.
as §1, §2

[5] = Blood βHB and glucose compared between SPD and WAG/Rij rats, Study 1; format: in vivo, rat; settings: for Glucose, Mean Diff., Tukey's multiple comparisons test (Compare S-D to WagRij) / βHB, Mean Diff., Tukey's multiple comparisons test (Compare S-D to WagRij): 7 days:S-D minus 7 days:WR, same supplement (5 vs 2.5 g/kg/day); for βHB levels in WAG/Rij rats compared to SPD rats: before (baseline) and after sub-chronic ketone supplementation
[6] = Body weight, SPD rats, Study 3; format: in vivo, rat; settings: compared to control
Experimental: The body weight of all animals was recorded before the first ketone treatment (before) and on the last day of the ketone treatment (after).
as §6

[7] = Blood βHB and glucose compared between the two animal models, Study 3; format: in vivo, rat; settings: after sub-chronic ketone supplementation (7 days; ~2.5 vs ~5 g/kg b.w./day)
From the text: as §6

[8] = tested on: WAG/Rij rats; assay: EPM after 7 days oral gavage, WAG/Rij rats, Study 3; format: in vivo, rat; settings: 7 days gavage ~2.5 g/kg b.w./day
Experimental: as §3, §4
as §5, with “The primary method for data collection was a video-tracking system with computer interface and video camera (SMART V3.0 PLATFORM, Panlab, Harvard Apparatus, USA), to automatically collect behavioral data in SPD rats. A blinded observer was present in the testing room separated from the maze by a curtain, and collected EPM data in both SPD and WAG/Rij animals.” left out

[9] = Blood βHB and glucose ~40 min after single dose, 1 year old SPD rats, Study 2; format: in vivo, rat; settings: right after 5 min EPM test, compared to control group
Experimental: One year old SPD rats were gavaged and EPM test was performed 30 min after administration. Treatment groups BD, KE, KEMCT, KSMCT, KEKS.
Another study was carried out using substantially similar methodologies and procedures as in Study 1, specifically using the EPM test to evaluate anxiety-related behavior in 1-year old SD rats when administered ketone supplementation versus control.

- Blood βHB ([1]; rat, in vivo): elevated
- Blood βHB [2]: elevated
- βHB, Mean Diff., Tukey's multiple comparisons test (Compare S-D to WagRij) [2]: −0.5375 mmol/1
- Blood βHB ([4]; rat, in vivo): elevated
- βHB, Mean Diff., Tukey's multiple comparisons test (Compare S-D to WagRij) [5]: −0.5614 mmol/1
- βHB levels in WAG/Rij rats compared to SPD rats [5]: Higher
Molecule: Na^+/K^+-βHB mineral salt [KS]
- Glucose, Mean Diff., Tukey's multiple comparisons test (Compare S-D to WagRij) [2]: -6.5 mg/dL
- Entries to the closed arms ([3]; compared to control): less frequent
- Time spent in the center ([3]; compared to control): decreased
- Entries to the center ([3]; compared to control (SD)): fewer times
- Glucose, Mean Diff., Tukey's multiple comparisons test (Compare S-D to WagRij) [5]: 15.28 mg/dL

Molecule: CC(=O)CC(=O)OCCC(C)OC(=O)CC(C)=O (stereo not drawn) [KE, 1,3-butanediol-acetoacetate diester]
- Glucose levels ([1]; WAG/Rij rats, after 24h, compared to baseline levels): lower
- Glucose levels ([1]; WAG/Rij rats, after 7 days compared to the level at 24h): elevated
- Blood βHB ([1]; WAG/Rij rats, after 7 days of gavage, compared to baseline, 24 hours and control): elevated
- Blood βHB [2]: elevated
- Glucose, Mean Diff., Tukey's multiple comparisons test (Compare S-D to WagRij) [2]: -2.75 mg/dL
- βHB, Mean Diff., Tukey's multiple comparisons test (Compare S-D to WagRij) [2]: −0.6125 mmol/1
- Entries to the closed arms ([3]; compared to control): less frequent
- Time spent in the center ([3]; compared to control): decreased
- Time spent in the open arms ([3]; compared to control): increased
- Body weight ([6]; after 7 days of treatment): lower
- Body weight ([6]; after chronic feeding): lower
- βHB levels in WAG/Rij rats compared to SPD rats [7]: Higher
- Blood βHB levels ([4]; SPD rats, 24 hours after a single gavage, compared to control): elevated
- Blood glucose ([4]; SPD rats, after 13 weeks of chronic feeding): lower
- Blood βHB levels ([4]; SPD rats, after 83 days of chronic feeding, compared to control): significantly elevated
- Blood glucose levels ([4]; SPD rats, sub-chronic, at 24 hours, compared to control): lower
- Entries to open arms ([8]; compared to control): less entries
- Time spent in the center ([8]; compared to control (SD)): more time
- Blood glucose level [9]: significantly lower
- Glucose, Mean Diff., Tukey's multiple comparisons test (Compare S-D to WagRij) [5]: 27.5 mg/dL
- βHB, Mean Diff., Tukey's multiple comparisons test (Compare S-D to WagRij) [5]: −0.9653 mmol/1
- βHB levels in WAG/Rij rats compared to SPD rats [5]: Higher
